Experimental data from patent US20240197702A1, “ANTISEPTIC-ANTIBIOTIC GUMBOS EFFECTIVE AGAINST GRAM-NEGATIVE PATHOGENS” (priority 2020, published 2024).
≈ marks a conversion by molar mass, not a printed value. Read-outs that look alike come from different tables or passages of the source.

Assays:
[1] = system: Carbapenem-resistant clinical isolates of Escherichia coli; test: MIC by micro-broth dilution against carbapenem-resistant E. coli; assay type: cell-based; details: MH broth
Description: (§1) Minimum Inhibitory Concentrations of GUMBOS against N. gonorrhoeae: Clinical isolates of N. gonorrhoeae and N. gonorrhoeae ATCC 49226 were obtained from Louisiana State University Health Sciences Center New Orleans HIV Outpatient Clinic. Minimum inhibitory concentrations (MICs) of GUMBOS, constituent parent drugs, azithromycin, and unreacted mixtures were determined using micro-broth dilution in 96-well plates. Stock solutions of 1 mM were prepared in deionized water (1% DMSO). Stock solutions were diluted to a known working concentration and 100 μL were added to the first row of the plate. For susceptibility testing of N. gonorrhoeae, media was prepared according to methods reported by Wade and Graver (Fed. Euro. Microbiol. Soc. Microbiol. Letts (2007), 273 (1), 35-37). This liquid medium allowed dense growth of N. gonorrhoeae for use in broth dilution tests. Protein-free liquid media (100 μL) were added to each well and two-fold dilutions were performed. The antibiotic containing wells were inoculated with an equal volume of bacterial inoculum matching a 0.5 McFarland standard. Microtiter plates were incubated for 20-24 hours at 37° C. with 5% CO2 and examined for visible signs of bacterial growth as evidenced by turbidity. The lowest concentration of antibiotic that prevents growth is the MIC.
(§2) Minimum Inhibitory Concentrations of GUMBOS against Carbapenem-resistant Enterobacteriaceae: GUMBOS, ceftriaxone, and azithromycin were tested against extended spectrum beta-lactamase (ESBL)-producing gram negative bacteria. Carbapenem-resistant clinical isolates of Escherichia coli, Enterobacter cloacae, and Klebsiella pneumoniae were obtained from Louisiana State University (LSU) Health Sciences Center New Orleans HIV Outpatient Clinic. Minimum inhibitory concentrations were determined as described above using micro-broth dilutions with two minor adjustments, cation-adjusted Mueller Hinton (MH) broth was used instead and stock solutions of test compounds were prepared directly in MH broth.

[2] = system: clinical isolates of N. gonorrhoeae; test: MIC by micro-broth dilution against N. gonorrhoeae clinical isolates; assay type: cell-based, Neisseria gonorrhoeae; details: for MIC: four clinical isolates, micro-broth dilution, 20-24 hours
Description: as §1, with “Stock solutions of 1 mM were prepared in deionized water (1% DMSO).” left out, “[…].” for “Graver (Fed.”, “Letts (2007), 273 (1), 35-37).” left out, “Microtiter plates were incubated for 20-24 hours at 37° C. with 5% CO2 and examined for visible signs of bacterial growth as evidenced by turbidity.” left out

[3] = system: N. gonorrhoeae ATCC 49226; test: MIC by micro-broth dilution against N. gonorrhoeae ATCC 49226; assay type: cell-based, Neisseria gonorrhoeae; details: for MIC: ATCC 49226, micro-broth dilution, 20-24 hours
Description: as §1, with “Stock solutions of 1 mM were prepared in deionized water (1% DMSO).” left out, “[…].” for “Graver (Fed.”, “Letts (2007), 273 (1), 35-37).” left out, “Microtiter plates were incubated for 20-24 hours at 37° C. with 5% CO2 and examined for visible signs of bacterial growth as evidenced by turbidity.” left out

[4] = system: Carbapenem-resistant clinical isolate of Enterobacter cloacae; test: MIC by micro-broth dilution against carbapenem-resistant E. cloacae; assay type: cell-based; details: CRE E. cloacae, MH broth
Description: as §1, §2

[5] = system: Carbapenem-resistant clinical isolate of Klebsiella pneumoniae; test: MIC by micro-broth dilution against carbapenem-resistant K. pneumoniae; assay type: cell-based; details: CRE K. pneumoniae, MH broth
Description: as §1, §2

[6] = Octanol-water partition coefficient (Log P), shake-flask method
Description: Octanol-Water Partition Coefficient: To determine the relative lipophilic strength of GUMBOS, the logarithmic octanol-water partition coefficient (Log P) was measured. It is a ratiometric parameter based on the concentration of therapeutic agent in either phase of the two-phase system (octanol and water) when at equilibrium (Equation 1). Specifically, a shake-flask method was used. To prevent minimal solvent miscibility, an equal amount of water and 1-octanol were mixed together for 24 hours and subsequently allowed to separate. The octanol layer was used to generate a calibration curve from the absorbance of the compound at various concentrations. An equal volume of saturated water was added to a flask of known concentration (Ci) chosen from the calibration curve. This mixture was stirred for a minimum of two hours and left undisturbed to allow the two solvent layers to separate. The absorbance of the therapeutic salt in the octanol layer was determined (Co). Thus, the concentration of therapeutic agent in water was determined using Ci−Co=Cw.
However, octanol-water partition coefficients were measured for GUMBOS using the shake flask method to further explore the lipophilic properties of these compounds.

HeLa cells = test: MTT cytotoxicity assay of ceftriaxone-based GUMBOS; assay type: cell-based; details: for IC50: read-out: Acute cytotoxicity (IC50); for Relative cell toxicity (in words): comparison with mixture or parent antiseptic
Description: Cytotoxicity Assay of GUMBOS: Cytotoxicity of GUMBOS, unreacted mixtures, and antiseptics towards healthy cells were evaluated using the MTT assay, a colorimetric dye assay, according to manufacturer's instructions. […] Stock solutions of antimicrobial agents in cell medium (1% MeOH) were diluted to a known working concentration, doubly diluted, and transferred to seeded cells. […] Cells treated with only DMEM were used as a negative control. After incubation, 15 μL of MTT were added to each well and cells were further incubated for an hour. Sodium dodecyl sulfate dimethylformamide solution was added after this additional incubation time in order to dissolve the purple formazan crystals. Cell viability was quantified at 570 nm using a microplate spectrophotometer (Eppendorf PlateReader AF2200, Hauppauge, NY). Cell viability as a percentage was determined as the ratio between treated cells and untreated (control) cells taken as 100%.

[7] = system: N. gonorrhoeae clinical isolates; test: Kirby-Bauer disc diffusion against N. gonorrhoeae clinical isolates; assay type: cell-based, Neisseria gonorrhoeae; details: three clinical isolates, 20-24 h
Description: (§3) Antimicrobial susceptibility testing: Kirby-Bauer disc diffusion susceptibility tests were used to determine zones of inhibition (ZOIs) for N. gonorrhoeae (ATCC 49226) and three clinical isolates obtained from Louisiana State University Health Sciences Center New Orleans HIV Outpatient Clinic. Kirby-Bauer disc diffusion is one of the CDC's preferred methods of testing the susceptibility of N. gonorrhoeae. Testing was performed according to CLSI recommended procedures. In this susceptibility test, 6 mm diameter blank paper discs were impregnated with known quantities of antimicrobial drug followed by evaporation of solvent; however, ceftriaxone, azithromycin and doxycycline antimicrobial susceptibility discs were purchased from Thermo Fisher Scientific. Impregnated discs were placed onto prepared nutrient agar plates that were inoculated with N. gonorrhoeae to give a confluent lawn of growth. Suspensions of these various strains were prepared in accordance with a 1.0 McFarland standard. Inoculated agar plates were incubated for 20-24 h at 37° C. in a 5% CO2 atmosphere.
(§4) Blank discs were loaded with 50 nmol of GUMBOS, respective constituent compounds and equivalent stoichiometric unreacted mixtures of octenidine and carbenicillin that are equimolar to the purchased ceftriaxone discs (Oxoid™, Thermo Fisher). After 20-24 h incubation, diameters of ZOIs were measured using a ruler. […] Antibacterial activity was improved for octenidine when chloride ions were exchanged for the antibiotic. […] This effect was not seen, however, for an unreacted mixture of the two drugs for either N. gonorrhoeae (ATCC 49226) or clinical isolates. The ZOIs of octenidine/carbenicillin were also larger than or equal to azithromycin and doxycycline ZOIs for N. gonorrhoeae (ATCC 49226). […] This is significant as resistance rates for azithromycin have increased worldwide. Among 57 countries reporting on azithromycin susceptibility, 28 (49%) reported>5% resistance. […] Ceftriaxone produced large ZOIs as the clinical population still remains susceptible to it in the USA (only 0.2% of isolates had elevated resistance to ceftriaxone in 2017).

[8] = system: N. gonorrhoeae ATCC 49226; test: Kirby-Bauer disc diffusion against N. gonorrhoeae ATCC 49226; assay type: cell-based, Neisseria gonorrhoeae; details: for Zone size, mm (±SD): ATCC 49226, disc diffusion, 20-24 h; for Zone sizes against CLSI susceptibility range: N. gonorrhoeae (ATCC 49226) and three clinical isolates
Description: as §3, §4

SMILES	MIC ([1]; CRE E. Coli (Isolate 2)) [µM]	MIC ([1]; CRE E. coli (Isolate 1)) [µM]	MIC [2] [µM]	MIC [3] [µM]	MIC [4] [µM]	MIC [5] [µM]	IC50 (HeLa cells; 15 min) [µM]	IC50 (HeLa cells; 60 min) [µM]	Zone size, mm (±SD) [7] [mm]	Zone size, mm (±SD) [8] [mm]	also measured
CON=C(C(=O)NC1C(=O)N2C(C(=O)O)=C(CSc3nc(=O)c(O)nn3C)CSC12)c1csc(N)n1.N=C(NCCCCCCNC(=N)NC(=N)Nc1ccc(Cl)cc1)NC(=N)Nc1ccc(Cl)cc1 (centres unmarked) [[CHX][CRO], chlorhexidine-ceftriaxone]	12.5	25	0.06 ± 0.02	0.08	50	50	84.3 ± 5.87	45.5 ± 1.42	–	–	Log P [6]: 0.2 (±0.1); Relative cell toxicity (in words) (HeLa cells): only slightly less toxic; Relative cell toxicity (in words) (HeLa cells; listed as Chlorhexidine-ceftriaxone): significantly less toxic than its unreacted, stoichiometric mixture
C[C@H]1c2cccc(O)c2C(=O)C2=C(O)[C@]3(O)C(=O)C(C(N)=O)=C(O)[C@@H](N(C)C)[C@@H]3[C@@H](O)[C@@H]21 [Doxycycline, doxycycline]	–	–	–	–	–	–	–	–	28 ± 7	35 ± 0.6	–
CC1(C)S[C@@H]2[C@H](NC(=O)C(C(=O)[O-])c3ccccc3)C(=O)N2[C@H]1C(=O)[O-].[Na+].[Na+] (some centres unmarked) [Na2 CAR, disodium carbenicillin]	–	–	–	–	–	–	–	–	28 ± 3	27 ± 3	–
CCCCCCCCNc1cc[n+](CCCCCCCCCC[n+]2ccc(NCCCCCCCC)cc2)cc1.CON=C(C(=O)NC1C(=O)N2C(C(=O)[O-])=C(CSc3nc(=O)c([O-])nn3C)CSC12)c1csc(N)n1 [[OCT][CRO], octenidine-ceftriaxone]	25	50	0.09 ± 0.07	0.08	25	25	66.5 ± 8.24	43.3 ± 5.98	–	–	Log P [6]: 0.3 (±0.2); Relative cell toxicity (in words) (HeLa cells): significantly less toxic than octenidine dihydrochloride; Relative cell toxicity (in words) (HeLa cells; listed as octenidine-ceftriaxone): indifferent toxicity to its unreacted, stoichiometric mixture of parent compounds
CC(=O)O.CC(=O)O.NC(=N\CCCCCC/N=C(N)/N=C(\N)Nc1ccc(Cl)cc1)/N=C(\N)Nc1ccc(Cl)cc1 [Chlorhexidine diacetate, chlorhexidine diacetate]	–	–	4.7 ± 1.8	3.1	–	–	80.8 ± 4.27	24.6 ± 0.66	–	–	–
CO/N=C(\C(=O)N[C@@H]1C(=O)N2C(C(=O)[O-])=C(CSc3nc(=O)c([O-])nn3C)CS[C@H]12)c1csc(N)n1.[Na+].[Na+] [Ceftriaxone, Ceftriaxone disodium salt]	>500	>500	–	0.04	>500	>500	–	–	49 ± 4	51 ± 1	MIC ([2]; read-out: MIC): 0.02 µM; Concentration as compared to GUMBOS ([3]; N. gonorrhoeae ATCC 49226): half-fold decrease; Zone sizes against CLSI susceptibility range [8]: within the susceptibility range set by CLSI
CC[C@H]1OC(=O)[C@H](C)[C@@H](O[C@H]2C[C@@](C)(OC)[C@@H](O)[C@H](C)O2)[C@H](C)[C@@H](O[C@@H]2O[C@H](C)C[C@H](N(C)C)[C@H]2O)[C@](C)(O)C[C@@H](C)CN(C)[C@H](C)[C@@H](O)[C@]1(C)O [Azithromycin, azithromycin]	–	–	–	–	–	–	–	–	36 ± 4	40 ± 1	MIC ([1]; Escherichia coli, CRE E. Coli (Isolate 2)): 250 µM (≈ 187 µg/mL); MIC ([1]; Escherichia coli, CRE E. coli (Isolate 1)): > 500 µM; Concentration required for growth inhibition, fold greater than GUMBOS ([2]; N. gonorrhoeae clinical isolates): six to nine; MIC ([2]; Neisseria gonorrhoeae, read-out: MIC): 0.6 ± 0.2 µM (≈ 0.449 µg/mL); MIC ([3]; Neisseria gonorrhoeae, ATCC49226): 0.8 µM (≈ 0.599 µg/mL); MIC ([4]; Enterobacter cloacae): 250 µM (≈ 187 µg/mL); MIC ([5]; Klebsiella pneumoniae): 250 µM (≈ 187 µg/mL); Zone sizes against CLSI susceptibility range [8]: within the susceptibility range set by CLSI
